Results as given in patent US20110038948A1, “Methods of Reducing the Production of Reactive Oxygen Species and Methods of Screening or Identifying Compounds and Compositions that Reduce the Production of Reactive Oxygen Species” (UNIVERSITY OF TENNESSEE RESEARCH FOUNDATION, priority 2005, published 2011).

Legend:
Assay type in all cases: cell-based, mouse
[1] = test system: adiponectin; assay: Adiponectin expression in 3T3-L1 adipocytes; details: 48 h
Procedure: 3T3-L1 pre-adipocytes were incubated at a density of 8000 cells/cm^2 (10 cm^2 dish) and grown in Dulbecco's modified Eagle's medium (DMEM) containing 10% FBS and antibiotics (adipocyte medium) at 37° C. in 5% CO2 in air. Confluent pre-adipocytes were induced to differentiate with a standard differentiation medium consisting of DMEM-F10 (1:1, vol/vol) medium supplemented with 1% fetal bovine serum (FBS), 1 μM dexamethasone, isobutylmethylxanthine (IBMX) (0.5 mM) and antibiotics (1% Penicillin-Streptomycin). Pre-adipocytes were maintained in this differentiation medium for 3 days and subsequently cultured in adipocyte medium. Cultures were re-fed every 2-3 days to allow 90% cells to reach fully differentiation before conducting chemical treatment. […] Cell viability was measured via trypan blue exclusion. Adipocyte and muscle 18s, TNFα, IL-6, IL-8, IL-15 and adiponectin were quantitatively measured using a smart cycler real-time PCR system (Cepheid, Sunnyvale, Calif.) with a TaqMan 1000 Core Reagent Kit (Applied Biosystems, Branchburg, N.J.). […] Reactions of quantitative RT-PCR for standards and unknown samples were also performed according to the instructions of Smart Cycler System (Cepheid, Sunnyvale, Calif.) and TaqMan Real Time PCR Core Kit (Applied Biosystems, Branchburg, N.J.). The mRNA quantitation for each sample was further normalized using the corresponding 18s quantitation.

[2] = test system: 3T3-L1 adipocytes; assay: Intracellular Ca2+ in cultured adipocytes (fura-2); details: H2O2 100 nmol/L, 4 hours; p<0.001
Procedure: 3T3-L1 preadipocytes were incubated at a density of 8000 cells/cm^2 (10 cm^2 dish) and grown in Dulbecco's modified Eagle's medium (DMEM) containing 10% FBS and antibiotics (adipocyte medium) at 37° C. in 5% CO2 in air. Confluent preadipocytes were induced to differentiate with a standard differentiation medium consisting of DMEM-F10 (1:1, vol/vol) medium supplemented with 1% FBS, 1 μM dexamethasone, IBMX (0.5 mM) and antibiotics (1% Penicillin-Streptomycin). Preadipocytes were maintained in this differentiation medium for 3 days and subsequently cultured in adipocyte medium. Cultures were re-fed every 2-3 days to allow 90% of cells to reach full differentiation before conducting chemical treatment. Chemicals were freshly diluted in adipocyte medium before treatment. Cells were washed with fresh adipocyte medium, re-fed with medium containing the different treatments, and incubated at 37° C. in 5% CO2 in air before analysis. Cell viability was measured via trypan blue exclusion. [Ca^2+]i in adipocytes was measured using a fura-2 dual-wavelength fluorescence imaging system. Cells were plated in 35-mm dishes […]). […] Cells were loaded with fura-2 acetoxymethyl ester (fura-2 AM) (10 μmol/L) in the same buffer for 2 h at 37° C. in a dark incubator with 5% CO2. To remove extracellular dye, cells were rinsed with HBSS three times and then post-incubated at room temperature for an additional 1 h for complete hydrolysis of cytoplasmic fura-2 AM. The dishes with dye-loaded cells were mounted on the stage of Nikon TMS-F fluorescence inverted microscope with a Cohu model 4915 charge-coupled device (CCD) camera. Fluorescent images were captured alternatively at excitation wavelengths of 340 and 380 nm with an emission wavelength of 520 nm. After establishment of a stable baseline, the responses to 1α, 25-(OH)2-D3 was determined. [Ca^2+]i was calculated using a ratio equation as described previously. Each analysis evaluated responses of 5 representative whole cells. Images were analyzed with […]2 version 4.62 imaging software (Intracellular Imaging, Cincinnati, Ohio). […]

[3] = test system: 3T3-L1 adipocytes; assay: Cytokine antibody array of culture medium
Procedure: RAW 264 macrophages and 3T3-L1 preadipocytes (American Type Culture Collection) were incubated at a density of 8000 cells/cm2 (10 cm2 dish) and grown in Dulbecco's modified Eagle's medium (DMEM) containing 10% FBS and antibiotics (adipocyte medium) at 37° C. in 5% CO2 in air. Confluent 3T3-L1 preadipocytes were induced to differentiate with a standard differentiation medium consisting of DMEM-F10 (1:1, vol/vol) medium supplemented with 1% FBS, 1 μM dexamethasone, IBMX (0.5 mM) and antibiotics (1% Penicillin-Streptomycin). Preadipocytes were maintained in this differentiation medium for 3 days and subsequently cultured in adipocyte medium. Cultures were re-fed every 2-3 days to allow 90% cells to reach fully differentiation for 3T3-L1 adipocytes or grow to a confluence for RAW 264 before conducting chemical treatment.
Human adipocytes (Zen-Bio, Inc.), 3T3-L1 adipocytes, RAW264 macrophages were obtained and co-cultured by using transwell inserts with 0.4 μm porous membranes (Corning) to separate adipocytes and macrophages. All data are expressed as mean±SEM. Data were evaluated for statistical significance by analysis of one-way or two-way variance (ANOVA; means with different letter differ, p<0.05).
A TansSignal™ mouse cytokine antibody array kit (Panomics, Fremont, Calif.) was used to detect cytokine protein released in culture medium according to the manufacture's instruction. […]

Row | Structure (SMILES) | effect on adiponectin production [1] | increase in [Ca2+]i [2] [fold] | inflammatory cytokine production ([3]; co-culture of 3T3-L1 adipocytes with macrophages) | production of multiple inflammatory cytokine proteins ([3]; differentiated 3T3-L1 adipocytes cultured alone)
1 | OO [H2O2, hydrogen peroxide] | without significant effect | 5 |  | 
2 | C=C1/C(=C\C=C2/CCC[C@]3(C)[C@@H]([C@H](C)CCCC(C)(C)O)CC[C@@H]23)C[C@@H](O)C[C@@H]1O [calcitriol, 1,25-(OH)2-D3] |  |  | further stimulated | up-regulated
